US9067935B2 (Janssen Pharmaceutica, NV, priority 2010, dated 2015)
Where “and” joins values, the source holds several entries; their conditions need not be identical. Equal entries are not always repeated. Where two headings read alike, the source gives them in different places.

Molecular target: canine TRPM8 (Canis lupus familiaris, UniProt Q1A7N1)
Assay: In Vitro Canine TRPM8 Functional Assay (intracellular Ca2+ fluorescence, icilin challenge)
Assay type: cell-based
Settings: for IC50: icilin at ~80% maximal response
Method: The functional activity of compounds of the formula (I) was determined by measuring changes in intracellular calcium concentration using a Ca^2+-sensitive fluorescent dye. The changes in fluorescent signal were monitored by a fluorescence plate reader, either a FLIPR™ (Molecular Devices) or FDSS (Hamamatsu).
At 24 hrs prior to assay, HEK293 cells stably expressing canine TRPM8 were seeded in culture medium in black wall, clear-base poly-D-lysine coated 384-well plates (BD Biosciences, NJ, USA) and grown overnight in 5% CO2 at 37° C. On assay day, growth media was removed and cells were loaded with Calcium 3 Dye (Molecular Devices) for 35 min at 37° C., under 5% CO2 and then for 25 min at room temperature and atmosphere. Subsequently, cells were tested for agonist-induced increases in intracellular Ca^2+ levels using FLIPR™ or FDSS. Cells were challenged with a compound of the Formula (I) (at varying concentrations) and intracellular Ca^2+ was measured for 5 min prior to the addition of icilin to all wells to achieve a final concentration that produces approximately an 80% maximal response. EC50 or IC50 values for compounds of the present invention were determined from eight-point dose-response studies. Curves were generated using the average of quadruplicate wells for each data point.

[1] = HEK293 cells stably expressing canine TRPM8
[2] = HEK293, @ 0.2 μM, HEK293 cells stably expressing canine TRPM8, read-out: % Inh (%) @ 0.2 μM

Sequence of canine TRPM8 (Q1A7N1 1-1104): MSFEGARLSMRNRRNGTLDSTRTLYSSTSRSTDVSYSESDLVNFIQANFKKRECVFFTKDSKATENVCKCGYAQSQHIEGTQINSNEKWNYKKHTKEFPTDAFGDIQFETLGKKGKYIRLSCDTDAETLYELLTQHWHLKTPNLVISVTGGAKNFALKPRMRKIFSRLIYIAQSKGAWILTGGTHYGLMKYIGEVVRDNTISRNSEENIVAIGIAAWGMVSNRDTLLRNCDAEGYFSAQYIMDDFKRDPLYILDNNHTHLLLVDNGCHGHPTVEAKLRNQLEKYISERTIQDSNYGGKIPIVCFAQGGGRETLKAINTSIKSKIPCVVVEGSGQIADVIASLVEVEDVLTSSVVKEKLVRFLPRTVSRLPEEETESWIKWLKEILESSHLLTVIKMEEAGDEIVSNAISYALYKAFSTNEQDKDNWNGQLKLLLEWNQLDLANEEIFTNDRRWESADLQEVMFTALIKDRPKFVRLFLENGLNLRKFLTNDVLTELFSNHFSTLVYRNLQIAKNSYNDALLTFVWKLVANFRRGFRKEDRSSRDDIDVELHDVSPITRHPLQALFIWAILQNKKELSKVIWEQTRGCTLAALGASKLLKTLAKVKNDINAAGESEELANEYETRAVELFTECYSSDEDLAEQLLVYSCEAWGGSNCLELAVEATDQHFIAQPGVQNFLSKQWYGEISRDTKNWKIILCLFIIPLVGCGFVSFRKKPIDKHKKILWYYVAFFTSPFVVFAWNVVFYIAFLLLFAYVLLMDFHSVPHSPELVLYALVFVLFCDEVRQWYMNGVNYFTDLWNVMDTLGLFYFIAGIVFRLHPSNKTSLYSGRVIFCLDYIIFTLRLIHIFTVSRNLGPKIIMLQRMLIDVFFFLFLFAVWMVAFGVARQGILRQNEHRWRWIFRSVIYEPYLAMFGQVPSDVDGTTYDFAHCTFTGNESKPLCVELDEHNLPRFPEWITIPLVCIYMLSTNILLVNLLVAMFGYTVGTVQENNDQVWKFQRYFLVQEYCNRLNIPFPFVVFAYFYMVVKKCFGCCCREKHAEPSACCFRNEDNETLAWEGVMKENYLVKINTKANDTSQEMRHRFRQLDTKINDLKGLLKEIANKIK

IC50 [1]	inhibition at 0.2 µM [2]	SMILES	inhibition at 0.2 µM (HEK293, read-out: % Inh (%) @ 0.2 μM)
0.00325 µM	–	O=S(=O)(c1ccccc1)N(Cc1ccc(F)c(C(F)(F)F)c1)c1nc2ccccn2c1Cl [Compound 1]	–
0.0018 µM	–	O=S(=O)(c1ccccc1)N(Cc1ccc(OC(F)(F)F)cc1)c1nc2ccccn2c1Cl [Compound 3]	–
0.0167 µM	–	CS(=O)(=O)N(Cc1ccc(OC(F)(F)F)cc1)c1nc2ccccn2c1Br [Compound 4]	–
0.0053 µM	–	O=S(=O)(c1ccccc1)N(Cc1ccc(OC(F)(F)F)cc1)c1nc2ccccn2c1Br [Compound 5]	–
–	–	O=C(O)c1ccc(S(=O)(=O)N(Cc2ccc(OC(F)(F)F)cc2)c2nc3ccccn3c2Cl)cc1 [Compound 6]	102%
0.0298 µM	–	O=S(=O)(c1ccccc1)N(Cc1ccc(OC(F)(F)F)cc1)c1nc2ccc(Cl)cn2c1Cl [Compound 7]	–
0.0136 µM	–	O=S(=O)(c1ccc(F)cc1)N(Cc1ccc(OC(F)(F)F)cc1)c1nc2ccccn2c1Cl [Compound 9]	–
0.0174 µM	–	O=S(=O)(c1ccc(F)cc1)N(Cc1ccc(F)c(C(F)(F)F)c1)c1nc2ccccn2c1Cl [Compound 10]	–
0.00568 µM	–	Cc1c(N(Cc2ccc(OC(F)(F)F)cc2)S(=O)(=O)c2ccccc2)nc2ccccn12 [Compound 11]	–
0.0487 µM	–	O=S(=O)(c1ccccc1)N(Cc1ccc(OC(F)(F)F)cc1)c1cn2ccccc2n1 [Compound 12]	–
0.0489 µM	–	O=S(=O)(c1ccccc1)N(Cc1ccc(F)c(C(F)(F)F)c1)c1cn2ccccc2n1 [Compound 13]	–
0.0207 µM	–	Cc1c(N(Cc2ccc(OC(F)(F)F)cc2)S(=O)(=O)c2ccccc2)nc2cc(Cl)ccn12 [Compound 14]	–
0.016 µM	–	Cc1c(N(Cc2ccc(F)c(C(F)(F)F)c2)S(=O)(=O)c2ccccc2)nc2cc(Cl)ccn12 [Compound 15]	–
0.072 µM	–	O=S(=O)(c1ccccc1)N(Cc1ccc(F)cc1)c1nc2ccc(Cl)cn2c1Cl [Compound 16]	–
0.0786 µM	–	O=S(=O)(c1ccccc1)N(Cc1ccc(F)c(F)c1)c1nc2ccc(Cl)cn2c1Cl [Compound 18]	–
0.0144 µM	–	Cc1c(N(Cc2ccc(OC(F)(F)F)cc2)S(=O)(=O)c2ccccc2)nc2ccc(F)cn12 [Compound 19]	–
0.0101 µM	–	Cc1c(N(Cc2ccc(F)c(C(F)(F)F)c2)S(=O)(=O)c2ccccc2)nc2ccc(F)cn12 [Compound 20]	–
0.0106 µM and 0.0124 µM	–	Cc1c(N(Cc2ccc(C(F)(F)F)c(F)c2)S(=O)(=O)c2ccccc2)nc2ccc(F)cn12 [Compound 21]	–
–	51%	Cc1c(N(Cc2ccc(OC(F)(F)F)cc2)S(C)(=O)=O)nc2ccc(F)cn12 [Compound 22]	–

IC50 [1]	inhibition at 0.2 µM [2]	SMILES	inhibition at 0.2 µM (HEK293, read-out: % Inh (%) @ 0.2 μM)
–	58%	Cc1c(N(Cc2ccc(F)c(C(F)(F)F)c2)S(C)(=O)=O)nc2ccc(F)cn12 [Compound 23]	–
0.0134 µM	–	O=S(=O)(c1ccccc1)N(Cc1ccc(C(F)(F)F)c(F)c1)c1cn2ccccc2n1 [Compound 24]	–
0.00349 µM	–	O=S(=O)(c1ccccc1)N(Cc1ccc(C(F)(F)F)c(F)c1)c1nc2ccccn2c1Br [Compound 25]	–
0.0101 µM	100%	Cc1ccn2c(C)c(N(Cc3ccc(OC(F)(F)F)cc3)S(=O)(=O)c3ccccc3)nc2c1 [Compound 26]	–
0.00611 µM	100%	Cc1ccn2c(C)c(N(Cc3ccc(C(F)(F)F)c(F)c3)S(=O)(=O)c3ccccc3)nc2c1 [Compound 27]	–
0.00801 µM	100%	Cc1ccn2c(C)c(N(Cc3ccc(F)c(C(F)(F)F)c3)S(=O)(=O)c3ccccc3)nc2c1 [Compound 28]	–
0.0322 µM	90%	O=S(=O)(c1ccccc1)N(Cc1ccc(C(F)(F)F)c(F)c1)c1nc2ccc(Cl)cn2c1Cl [Compound 29]	–
0.01 µM	100%	Cc1cccn2c(C)c(N(Cc3ccc(OC(F)(F)F)cc3)S(=O)(=O)c3ccccc3)nc12 [Compound 30]	–
0.0103 µM	101%	Cc1cccn2c(C)c(N(Cc3ccc(F)c(C(F)(F)F)c3)S(=O)(=O)c3ccccc3)nc12 [Compound 31]	–
0.0125 µM	100%	Cc1cccn2c(C)c(N(Cc3ccc(C(F)(F)F)c(F)c3)S(=O)(=O)c3ccccc3)nc12 [Compound 32]	–
0.0267 µM	99%	Cc1cccn2c(C)c(N(Cc3ccc(C(F)(F)F)cc3)S(=O)(=O)c3ccccc3)nc12 [Compound 33]	–
0.00983 µM	100%	Cc1cccn2c(C)c(N(Cc3cccc(C(F)(F)F)c3)S(=O)(=O)c3ccccc3)nc12 [Compound 34]	–
0.0449 µM	74%	Cc1cccn2c(C)c(N(Cc3ccc(F)c(C(F)(F)F)c3)S(C)(=O)=O)nc12 [Compound 35]	–
0.0225 µM	100%	Cc1c(N(Cc2ccc(OC(F)(F)F)cc2)S(=O)(=O)c2ccccc2)nc2ccc(Cl)cn12 [Compound 36]	–
0.0294 µM	100%	Cc1c(N(Cc2ccc(F)c(C(F)(F)F)c2)S(=O)(=O)c2ccccc2)nc2ccc(Cl)cn12 [Compound 37]	–
0.0289 µM	99%	Cc1ccc2nc(N(Cc3ccc(OC(F)(F)F)cc3)S(=O)(=O)c3ccccc3)c(C)n2c1 [Compound 39]	–
0.0222 µM	100%	Cc1ccc2nc(N(Cc3ccc(F)c(C(F)(F)F)c3)S(=O)(=O)c3ccccc3)c(C)n2c1 [Compound 40]	–
0.0253 µM	100%	Cc1ccc2nc(N(Cc3ccc(C(F)(F)F)c(F)c3)S(=O)(=O)c3ccccc3)c(C)n2c1 [Compound 41]	–
0.0254 µM	99%	Cc1ccn2c(C)c(N(Cc3ccc(F)c(C(F)(F)F)c3)S(=O)(=O)c3ccc(Br)cc3)nc2c1 [Compound 42]	–

IC50 [1]	inhibition at 0.2 µM [2]	SMILES	inhibition at 0.2 µM (HEK293, read-out: % Inh (%) @ 0.2 μM)
0.0243 µM	99%	Cc1c(N(Cc2ccc(C(F)(F)F)cc2)S(=O)(=O)c2ccccc2)nc2ccc(Cl)cn12 [Compound 43]	–
0.0183 µM	100%	Cc1c(N(Cc2cccc(C(F)(F)F)c2)S(=O)(=O)c2ccccc2)nc2ccc(Cl)cn12 [Compound 44]	–
0.039 µM	99%	Cc1c(N(Cc2cccc(OC(F)(F)F)c2)S(=O)(=O)c2ccccc2)nc2ccc(Cl)cn12 [Compound 45]	–
0.0136 µM	99%	Cc1c(N(Cc2ccc(F)c(Cl)c2)S(=O)(=O)c2ccccc2)nc2ccc(Cl)cn12 [Compound 46]	–
0.011 µM	99%	Cc1cccc2nc(N(Cc3ccc(F)c(C(F)(F)F)c3)S(=O)(=O)c3ccccc3)c(C)n12 [Compound 48]	–
0.0133 µM	99%	Cc1cccc2nc(N(Cc3ccc(C(F)(F)F)c(F)c3)S(=O)(=O)c3ccccc3)c(C)n12 [Compound 49]	–
0.0123 µM	101%	CC(C)c1c(N(Cc2ccc(F)c(C(F)(F)F)c2)S(=O)(=O)c2ccccc2)nc2ccccn12 [Compound 50]	–
0.00656 µM	101%	CC(C)c1c(N(Cc2ccc(C(F)(F)F)c(F)c2)S(=O)(=O)c2ccccc2)nc2ccccn12 [Compound 51]	–
0.00943 µM	101%	CC(C)c1c(N(Cc2ccc(OC(F)(F)F)cc2)S(=O)(=O)c2ccccc2)nc2ccccn12 [Compound 52]	–
0.00319 µM	101%	CC(C)c1c(N(Cc2ccc(C(F)(F)F)cc2)S(=O)(=O)c2ccccc2)nc2ccccn12 [Compound 53]	–
0.00792 µM	101%	CC(C)c1c(N(Cc2cccc(C(F)(F)F)c2)S(=O)(=O)c2ccccc2)nc2ccccn12 [Compound 54]	–
0.0334 µM	94%	CCc1c(N(Cc2ccc(F)c(C(F)(F)F)c2)S(=O)(=O)c2ccccc2)nc2c(C(F)(F)F)cccn12 [Compound 55, N-(3-Ethyl-8-trifluoromethylimidazo[1,2-a]pyridin-2-yl)-N-(4-fluoro-3-trifluoromethylbenzyl)benzenesulfonamide]	–
0.065 µM	99%	CCc1c(N(Cc2ccc(C(F)(F)F)c(F)c2)S(=O)(=O)c2ccccc2)nc2c(C(F)(F)F)cccn12 [Compound 56]	–
0.0966 µM	82%	CCc1c(N(Cc2ccc(OC(F)(F)F)cc2)S(=O)(=O)c2ccccc2)nc2c(C(F)(F)F)cccn12 [Compound 57]	–
0.0715 µM	87%	CCc1c(N(Cc2ccc(C(F)(F)F)cc2)S(=O)(=O)c2ccccc2)nc2c(C(F)(F)F)cccn12 [Compound 58]	–
0.0802 µM	97%	CCc1c(N(Cc2cccc(C(F)(F)F)c2)S(=O)(=O)c2ccccc2)nc2c(C(F)(F)F)cccn12 [Compound 59]	–
–	55%	O=S(=O)(c1ccccc1)N(Cc1ccc(C(F)(F)F)c(F)c1)c1nc2ccc(C(F)(F)F)cn2c1Cl [Compound 60, N-(3-Chloro-6-trifluoromethylimidazo[1,2-a]pyridin-2-yl)-N-(3-fluoro-4-trifluoromethylbenzyl)benzenesulfonamide]	–
–	47%	O=S(=O)(c1ccccc1)N(Cc1ccc(OC(F)(F)F)cc1)c1nc2ccc(C(F)(F)F)cn2c1Cl [Compound 61]	–
–	56%	O=S(=O)(c1ccccc1)N(Cc1ccc(F)c(C(F)(F)F)c1)c1nc2ccc(C(F)(F)F)cn2c1Cl [Compound 62]	–
